{"source": "paper PMC5218480", "about": "(PLoS ONE, 2017)", "test_system": "MV-4-11 cells", "assay": "Gene expression microarray analysis (Affymetrix PrimeView) and GSEA", "format": "cell-based, human", "set-up": "RFU PODN (11730768_x_at) / Fold change /veh PODN (11730768_x_at) / RFU LINC00158 (11744669_a_at) / Fold change /veh LINC00158 (11744669_a_at) / RFU DUSP10 (11751237_a_at) / Fold change /veh DUSP10 (11751237_a_at) / RFU ID3 (11757404_x_at) / Fold change /veh ID3 (11757404_x_at) / RFU PLEKHG5 (11737974_s_at) / Fold change /veh PLEKHG5 (11737974_s_at) / RFU LRRC4B (11730491_at) / Fold change /veh LRRC4B (11730491_at) / RFU GIMAP4 (11747438_a_at) / Fold change /veh GIMAP4 (11747438_a_at) / RFU KRT8 (11758183_x_at) / Fold change /veh KRT8 (11758183_x_at) / RFU CNN1 (11734310_a_at) / Fold change /veh CNN1 (11734310_a_at) / RFU VPS37D (11726825_at) / Fold change /veh VPS37D (11726825_at) / RFU C10orf10 (11716522_x_at) / Fold change /veh C10orf10 (11716522_x_at) / RFU KIR2DL2 /// KIR2DL4 /// KIR2DL5A /// KIR2DL5B /// KIR2DS1 /// KIR2DS2 /// KIR2DS3 /// KIR2DS4 /// KIR3DL3 /// KIR3DL3 /// KIR3DS1 (11738374_at) / Fold change /veh KIR2DL2 /// KIR2DL4 /// KIR2DL5A /// KIR2DL5B /// KIR2DS1 /// KIR2DS2 /// KIR2DS3 /// KIR2DS4 /// KIR3DL3 /// KIR3DL3 /// KIR3DS1 (11738374_at) / RFU C1QL1 (11718748_at) / Fold change /veh C1QL1 (11718748_at) / RFU TMPRSS4 (11747572_a_at) / Fold change /veh TMPRSS4 (11747572_a_at) / RFU HAMP (11756126_x_at) / Fold change /veh HAMP (11756126_x_at) / RFU RNFT2 (11725882_a_at) / Fold change /veh RNFT2 (11725882_a_at) / RFU NR4A2 (11747474_a_at) / Fold change /veh NR4A2 (11747474_a_at) / RFU ABCC12 (11746883_a_at) / Fold change /veh ABCC12 (11746883_a_at) / RFU TMEM136 (11760407_x_at) / Fold change /veh TMEM136 (11760407_x_at) / RFU CLDN22 /// WWC2 (11732394_at) / Fold change /veh CLDN22 /// WWC2 (11732394_at) / RFU HLA-DPB1 (11760878_x_at) / Fold change /veh HLA-DPB1 (11760878_x_at) / RFU SPINT1 (11716480_a_at) / Fold change /veh SPINT1 (11716480_a_at) / RFU GAP43 (11754022_s_at) / Fold change /veh GAP43 (11754022_s_at) / RFU A4GNT (11735810_at) / Fold change /veh A4GNT (11735810_at) / RFU PRB3 (11715151_x_at) / Fold change /veh PRB3 (11715151_x_at) / RFU TUBB4B (11761932_at) / Fold change /veh TUBB4B (11761932_at) / RFU CAPN14 (11732068_a_at) / Fold change /veh CAPN14 (11732068_a_at) / RFU TMCC2 (11721928_a_at) / Fold change /veh TMCC2 (11721928_a_at) / RFU IRGQ (11745062_a_at) / Fold change /veh IRGQ (11745062_a_at) / RFU FAM174B (11720279_a_at) / Fold change /veh FAM174B (11720279_a_at) / RFU TMPRSS4 (11748680_a_at) / Fold change /veh TMPRSS4 (11748680_a_at) / RFU FAM212B (11763350_a_at) / Fold change /veh FAM212B (11763350_a_at) / RFU PLEKHG5 (11743358_a_at) / Fold change /veh PLEKHG5 (11743358_a_at) / RFU ZSCAN30 (11745921_a_at) / Fold change /veh ZSCAN30 (11745921_a_at) / RFU CMKLR1 (11741424_a_at) / Fold change /veh CMKLR1 (11741424_a_at) / RFU LOC101060620 /// MAPK8IP1 (11723275_at) / Fold change /veh LOC101060620 /// MAPK8IP1 (11723275_at) / RFU SPTSSB (11747773_x_at) / Fold change /veh SPTSSB (11747773_x_at) / RFU PRSS12 (11739890_at) / Fold change /veh PRSS12 (11739890_at) / RFU BIN1 (11741810_x_at) / Fold change /veh BIN1 (11741810_x_at) / RFU WNT11 (11732464_a_at) / Fold change /veh WNT11 (11732464_a_at) / RFU C10orf10 (11716521_a_at) / Fold change /veh C10orf10 (11716521_a_at) / RFU C5orf56 (11738089_at) / Fold change /veh C5orf56 (11738089_at) / RFU CYB561 (11721691_x_at) / Fold change /veh CYB561 (11721691_x_at) / RFU ANKRD19P (11752326_a_at) / Fold change /veh ANKRD19P (11752326_a_at) / RFU OR2T12 /// OR2T33 /// OR2T8 (11738714_s_at) / Fold change /veh OR2T12 /// OR2T33 /// OR2T8 (11738714_s_at) / RFU VCAN (11748164_a_at) / Fold change /veh VCAN (11748164_a_at) / RFU JSRP1 (11732532_at) / Fold change /veh JSRP1 (11732532_at) / RFU KRTAP10-11 (11738290_x_at) / Fold change /veh KRTAP10-11 (11738290_x_at) / RFU MYO3A (11730013_a_at) / Fold change /veh MYO3A (11730013_a_at) / RFU EBF3 (11725865_a_at) / Fold change /veh EBF3 (11725865_a_at) / RFU CAMK2N1 (11719241_x_at) / Fold change /veh CAMK2N1 (11719241_x_at) / RFU C5orf56 (11738088_a_at) / Fold change /veh C5orf56 (11738088_a_at) / RFU OLFML3 (11715873_a_at) / Fold change /veh OLFML3 (11715873_a_at) / RFU LOC100653217 /// NTM (11731650_a_at) / Fold change /veh LOC100653217 /// NTM (11731650_a_at) / RFU MAPK11 (11762145_a_at) / Fold change /veh MAPK11 (11762145_a_at) / RFU FIZ1 (11724087_x_at) / Fold change /veh FIZ1 (11724087_x_at) / RFU OASL (11726364_x_at) / Fold change /veh OASL (11726364_x_at) / RFU SOX15 (11748057_x_at) / Fold change /veh SOX15 (11748057_x_at) / RFU CD79A (11719716_a_at) / Fold change /veh CD79A (11719716_a_at) / RFU HIST1H1D (11736915_at) / Fold change /veh HIST1H1D (11736915_at) / RFU CASKIN2 (11723855_a_at) / Fold change /veh CASKIN2 (11723855_a_at) / RFU LOC730098 (11760151_x_at) / Fold change /veh LOC730098 (11760151_x_at) / RFU OR4N2 (11742367_at) / Fold change /veh OR4N2 (11742367_at) / RFU PRRT2 (11749266_a_at) / Fold change /veh PRRT2 (11749266_a_at) / RFU SNX32 (11753110_a_at) / Fold change /veh SNX32 (11753110_a_at) / RFU CDHR5 (11726645_a_at) / Fold change /veh CDHR5 (11726645_a_at) / RFU RCAN1 (11760418_a_at) / Fold change /veh RCAN1 (11760418_a_at) / RFU FAM167A (11723789_a_at) / Fold change /veh FAM167A (11723789_a_at) / RFU FAM26E (11764081_at) / Fold change /veh FAM26E (11764081_at) / RFU ISYNA1 (11749810_s_at) / Fold change /veh ISYNA1 (11749810_s_at) / RFU ACY1 (11761880_at) / Fold change /veh ACY1 (11761880_at) / RFU 11764098_at / Fold change /veh 11764098_at / RFU SAMD14 (11745864_x_at) / Fold change /veh SAMD14 (11745864_x_at) / RFU NPB (11741838_a_at) / Fold change /veh NPB (11741838_a_at) / RFU TMPRSS6 (11731388_a_at) / Fold change /veh TMPRSS6 (11731388_a_at) / RFU KRTAP10-2 (11738614_at) / Fold change /veh KRTAP10-2 (11738614_at) / RFU ARHGAP8 /// PRR5-ARHGAP8 (11727945_x_at) / Fold change /veh ARHGAP8 /// PRR5-ARHGAP8 (11727945_x_at) / RFU KRTAP5-7 /// NADSYN1 (11734609_at) / Fold change /veh KRTAP5-7 /// NADSYN1 (11734609_at) / RFU RASL12 (11751679_a_at) / Fold change /veh RASL12 (11751679_a_at) / RFU CDKN2B (11736163_a_at) / Fold change /veh CDKN2B (11736163_a_at) / RFU PRF1 (11729649_at) / Fold change /veh PRF1 (11729649_at) / RFU, ZNF638 /// ZNF638-IT1 / Fold change vs veh, ZNF638 /// ZNF638-IT1 / RFU, PANK3 / Fold change vs veh, PANK3 / RFU, SH3YL1 / Fold change vs veh, SH3YL1 / RFU, ZEB2 / Fold change vs veh, ZEB2 / RFU, NRIP1 / Fold change vs veh, NRIP1 / RFU, PTTG1IP / Fold change vs veh, PTTG1IP / RFU, CAPN2 / Fold change vs veh, CAPN2 / RFU, MED14 / Fold change vs veh, MED14 / RFU, SNORA58 / Fold change vs veh, SNORA58 / RFU, C1orf63 / Fold change vs veh, C1orf63 / RFU, LRRFIP1 / Fold change vs veh, LRRFIP1 / RFU, NDUFAF7 / Fold change vs veh, NDUFAF7 / RFU, SLC12A2 / Fold change vs veh, SLC12A2 / RFU, IBTK / Fold change vs veh, IBTK / RFU, ESF1 / Fold change vs veh, ESF1 / Fold change vs veh, TMEM50B / RFU, TAOK1 / Fold change vs veh, TAOK1 / RFU, ACBD3 / Fold change vs veh, ACBD3 / RFU, TMA16 / Fold change vs veh, TMA16 / RFU, RWDD3 / Fold change vs veh, RWDD3 / RFU, BCAT1 / Fold change vs veh, BCAT1 / RFU, EDEM3 / Fold change vs veh, EDEM3 / RFU, TMEM33 / Fold change vs veh, TMEM33 / RFU, WDR75 / Fold change vs veh, WDR75 / RFU, AHCTF1 / Fold change vs veh, AHCTF1 / RFU, TFRC / Fold change vs veh, TFRC / RFU, ZDHHC17 / Fold change vs veh, ZDHHC17 / RFU, NOM1 / Fold change vs veh, NOM1 / RFU, ARL8B / Fold change vs veh, ARL8B / RFU, ZBTB11 / Fold change vs veh, ZBTB11 / RFU, TAMM41 / Fold change vs veh, TAMM41 / RFU, KIAA1704 /// LOC100996395 / Fold change vs veh, KIAA1704 /// LOC100996395 / RFU, ING1 / Fold change vs veh, ING1 / RFU, TRMT61B / Fold change vs veh, TRMT61B / RFU, FUBP3 / Fold change vs veh, FUBP3 / RFU, TP53 / Fold change vs veh, TP53 / RFU, TNKS2 / Fold change vs veh, TNKS2 / RFU, ZFP14 / Fold change vs veh, ZFP14 / RFU, ACTR2 / Fold change vs veh, ACTR2 / RFU, PPP3R1 / Fold change vs veh, PPP3R1 / RFU, PIK3R1 / Fold change vs veh, PIK3R1 / RFU, HNRNPA1 / Fold change vs veh, HNRNPA1 / RFU, RNF170 / Fold change vs veh, RNF170 / RFU, ZNF28 / Fold change vs veh, ZNF28 / RFU, RNGTT / Fold change vs veh, RNGTT / RFU, OGT / Fold change vs veh, OGT / RFU, BRD1 / Fold change vs veh, BRD1 / RFU, MARS / Fold change vs veh, MARS / RFU, ZNF655 / Fold change vs veh, ZNF655 / RFU, FAHD1 / Fold change vs veh, FAHD1 / RFU, BDP1 / Fold change vs veh, BDP1 / RFU, LRRCC1 / Fold change vs veh, LRRCC1 / RFU, ARID1A / Fold change vs veh, ARID1A / RFU, ZNF146 / Fold change vs veh, ZNF146 / RFU, ZNF330 / Fold change vs veh, ZNF330 / RFU, GPN3 / Fold change vs veh, GPN3 / RFU, C9orf123 / Fold change vs veh, C9orf123 / RFU, N4BP2L2 / Fold change vs veh, N4BP2L2 / RFU, ARFIP1 / Fold change vs veh, ARFIP1 / RFU, FAM179B / Fold change vs veh, FAM179B / RFU, BCL10 / Fold change vs veh, BCL10 / RFU, UHRF1BP1L / Fold change vs veh, UHRF1BP1L / RFU, BET1 / Fold change vs veh, BET1 / RFU, CNOT2 / Fold change vs veh, CNOT2 / RFU, ZNF268 / Fold change vs veh, ZNF268 / Fold change vs veh, ZNF507 / RFU, DGCR2 / Fold change vs veh, DGCR2 / RFU, WDSUB1 / Fold change vs veh, WDSUB1 / Fold change vs veh, HSP90B1 /// MIR3652 / RFU, ADSS / Fold change vs veh, ADSS / RFU, GK / Fold change vs veh, GK / RFU, ZNF148 / Fold change vs veh, ZNF148 / RFU, TAF9 / Fold change vs veh, TAF9 / RFU, SLC1A5 / Fold change vs veh, SLC1A5 / RFU, SLMO2 / Fold change vs veh, SLMO2 / RFU, ABCC4 / Fold change vs veh, ABCC4 / RFU, LOC101060439 /// RAP1B / Fold change vs veh, LOC101060439 /// RAP1B / RFU, RFX7 / Fold change vs veh, RFX7 / RFU, GTPBP10 / Fold change vs veh, GTPBP10 / RFU, CNEP1R1 / Fold change vs veh, CNEP1R1 / RFU, BIVM-ERCC5 /// ERCC5 / Fold change vs veh, BIVM-ERCC5 /// ERCC5 / RFU, ILF3 / Fold change vs veh, ILF3 / RFU 11762660_at / Fold change /veh 11762660_at / RFU VCAN (11757783_s_at) / Fold change /veh VCAN (11757783_s_at) / RFU DDX43 (11728927_at) / Fold change /veh DDX43 (11728927_at) / RFU KRT8 (11758188_x_at) / Fold change /veh KRT8 (11758188_x_at) / RFU NKD1 (11759106_at) / Fold change /veh NKD1 (11759106_at) / RFU SRD5A1 (11742802_a_at) / Fold change /veh SRD5A1 (11742802_a_at) / RFU TPSAB1 /// TPSB2 (11721975_s_at) / Fold change /veh TPSAB1 /// TPSB2 (11721975_s_at) / RFU GSTM3 (11746129_a_at) / Fold change /veh GSTM3 (11746129_a_at) / RFU IL23R (11737362_x_at) / Fold change /veh IL23R (11737362_x_at) / RFU TMEM51 (11727254_a_at) / Fold change /veh TMEM51 (11727254_a_at) / RFU PIWIL2 (11732686_x_at) / Fold change /veh PIWIL2 (11732686_x_at) / RFU ORM1 (11744905_x_at) / Fold change /veh ORM1 (11744905_x_at) / RFU CCDC152 (11743942_at) / Fold change /veh CCDC152 (11743942_at) / RFU ECM1 (11717891_a_at) / Fold change /veh ECM1 (11717891_a_at) / RFU IL23R (11748794_a_at) / Fold change /veh IL23R (11748794_a_at) / RFU TNFAIP8L3 (11732012_x_at) / Fold change /veh TNFAIP8L3 (11732012_x_at) / RFU MBOAT4 (11741988_at) / Fold change /veh MBOAT4 (11741988_at) / RFU 11764193_at / Fold change /veh 11764193_at / RFU TMEM53 (11763286_at) / Fold change /veh TMEM53 (11763286_at) / RFU MAGEB2 (11727129_at) / Fold change /veh MAGEB2 (11727129_at) / RFU TMEM200A (11744735_a_at) / Fold change /veh TMEM200A (11744735_a_at) / RFU CCDC152 (11751479_a_at) / Fold change /veh CCDC152 (11751479_a_at) / RFU FAM211A (11726209_a_at) / Fold change /veh FAM211A (11726209_a_at) / RFU RGS16 (11746705_a_at) / Fold change /veh RGS16 (11746705_a_at) / RFU VCAN (11755009_s_at) / Fold change /veh VCAN (11755009_s_at) / RFU RHOB (11743442_s_at) / Fold change /veh RHOB (11743442_s_at) / RFU RGS16 (11720943_a_at) / Fold change /veh RGS16 (11720943_a_at) / RFU RGS16 (11720944_at) / Fold change /veh RGS16 (11720944_at) / RFU, VPS4B / Fold change vs veh, VPS4B / RFU, CREB1 / Fold change vs veh, CREB1 / RFU, DNAJC13 / Fold change vs veh, DNAJC13 / RFU, GNAQ / Fold change vs veh, GNAQ / RFU, CDK5R1 / Fold change vs veh, CDK5R1 / RFU, ZRANB3 / Fold change vs veh, ZRANB3 / RFU, CUL4A / Fold change vs veh, CUL4A / RFU, CCNY / Fold change vs veh, CCNY / RFU, UFL1 / Fold change vs veh, UFL1 / RFU, COG3 / Fold change vs veh, COG3 / RFU, DIAPH2 / Fold change vs veh, DIAPH2 / RFU, SKA2 / Fold change vs veh, SKA2 / RFU, AFF3 / Fold change vs veh, AFF3 / RFU, LMF1 / Fold change vs veh, LMF1 / RFU, IPO11 / Fold change vs veh, IPO11 / RFU, DFFB / Fold change vs veh, DFFB / RFU, FOXP1 / Fold change vs veh, FOXP1 / RFU, CARD8 / Fold change vs veh, CARD8 / RFU, STRN3 / Fold change vs veh, STRN3 / RFU, ADK / Fold change vs veh, ADK / RFU, RASSF2 / Fold change vs veh, RASSF2 / RFU, WIPF1 / Fold change vs veh, WIPF1 / RFU, LARP1B / Fold change vs veh, LARP1B / RFU, RASA1 / Fold change vs veh, RASA1 / RFU, RB1 / Fold change vs veh, RB1 / RFU, PPFIA1 / Fold change vs veh, PPFIA1 / RFU, MAT2A / Fold change vs veh, MAT2A / RFU, CCT5 / Fold change vs veh, CCT5 / RFU, WDR92 / Fold change vs veh, WDR92 / RFU, CUX1 / Fold change vs veh, CUX1 / RFU, TTC7A / Fold change vs veh, TTC7A / RFU, TMEM135 / Fold change vs veh, TMEM135 / RFU, DEPTOR / Fold change vs veh, DEPTOR / RFU, CPM / Fold change vs veh, CPM / RFU, DNAJB6 / Fold change vs veh, DNAJB6 / RFU, CACNA2D3 / Fold change vs veh, CACNA2D3 / RFU, DTX4 / Fold change vs veh, DTX4 / RFU, TFCP2 / Fold change vs veh, TFCP2 / RFU, GMCL1 /// GMCL1P1 / Fold change vs veh, GMCL1 /// GMCL1P1 / RFU, AEBP2 / Fold change vs veh, AEBP2 / RFU, SNHG1 /// SNORD22 /// SNORD25 /// SNORD26 /// SNORD27 /// SNORD28 /// SNORD29 /// SNORD31 / Fold change vs veh, SNHG1 /// SNORD22 /// SNORD25 /// SNORD26 /// SNORD27 /// SNORD28 /// SNORD29 /// SNORD31 / Fold change (Aza/veh), C12orf56 (ProbeSet 11735607_a_at) / Fold change (ACY-1035/veh), C12orf56 (ProbeSet 11735607_a_at) / Fold change (Aza/veh), FGFR1OP (ProbeSet 11751329_s_at) / Fold change (ACY-1035/veh), FGFR1OP (ProbeSet 11751329_s_at) / Fold change (Aza/veh), VPS36 (ProbeSet 11739960_a_at) / Fold change (ACY-1035/veh), VPS36 (ProbeSet 11739960_a_at) / RFU SYPL1 (11715823_x_at) / Fold change /veh SYPL1 (11715823_x_at) / RFU IGFBP7 (11715501_s_at) / Fold change /veh IGFBP7 (11715501_s_at) / RFU REEP3 (11722064_at) / Fold change /veh REEP3 (11722064_at) / RFU IGLL1 (11728026_x_at) / Fold change /veh IGLL1 (11728026_x_at): dose or concentration left out as unconfirmed", "conditions": "ProbeSet 11745260_x_at; LIST B", "data": [{"smiles": "Nc1ccc(-c2cccs2)cc1NC(=O)c1ccc2c(c1)cc(C1CC1)n2CCN1CCOCC1", "note": "[ACY-1035]", "values": [{"measurement": "Fold change vs veh, SLC12A2", "value": 0.87}]}]}
